Drawing on PMC2217464 (The Journal of General Physiology, 2004), this text covers IC50 for two molecules.

By IC50 is commonly meant the midpoint of a concentration-inhibition curve.

Changes are numbered by the printed parent chain.

The target in test [1] is T1, mouse bestrophin-2 (mBest2) (Mus musculus, UniProt Q8BGM5).
T1 sequence (Q8BGM5 1-508): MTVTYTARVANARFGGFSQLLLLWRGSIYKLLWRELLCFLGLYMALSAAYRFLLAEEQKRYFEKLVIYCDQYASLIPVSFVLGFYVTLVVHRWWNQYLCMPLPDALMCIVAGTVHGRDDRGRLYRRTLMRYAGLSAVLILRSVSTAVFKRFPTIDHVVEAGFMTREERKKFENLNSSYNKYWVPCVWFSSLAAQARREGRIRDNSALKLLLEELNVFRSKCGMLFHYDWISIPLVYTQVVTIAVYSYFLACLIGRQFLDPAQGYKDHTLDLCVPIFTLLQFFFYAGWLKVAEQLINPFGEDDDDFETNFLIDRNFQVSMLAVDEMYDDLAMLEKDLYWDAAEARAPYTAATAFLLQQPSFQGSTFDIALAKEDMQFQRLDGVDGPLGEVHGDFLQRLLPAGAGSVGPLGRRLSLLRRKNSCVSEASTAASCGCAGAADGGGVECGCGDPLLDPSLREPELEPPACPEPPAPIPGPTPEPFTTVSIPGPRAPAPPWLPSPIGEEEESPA
Description: whole-cell patch clamp, block of Cl- current. In kind it is cell-based. (In general: Patch clamp records ionic current or voltage across a cell membrane.)

The target in test [2] is T2, mouse bestrophin-2 (mBest2) (Mus musculus, UniProt Q8BGM5, S79C).
T2 sequence (Q8BGM5 1-508 S79C): T1 sequence (Q8BGM5 1-508) with S79C
Description: whole-cell patch clamp, block of Cl- current. The test is classed as cell-based.

As for `O=S(=O)(O)c1cc(N=C=S)ccc1/C=C/c1ccc(N=C=S)cc1S(=O)(=O)O` [DIDS], the IC50 in test [1] was 3.1 ± 0.3 µM; in test [2], 14.6 ± 3.6 µM.

`N#CS` [SCN^−] came in with an IC50 in test [1] of 12000 µM.
